Laboratory results reported in patent US20030059774A1, “Detection of CYP2C19 polymorphisms” (priority 2000, published 2003).

System: CYP2C19
Test: Omeprazole metabolic ratio (MR) phenotyping of study subjects, correlated with CYP2C19 5' flanking region haplotypes
Type: in vivo, human
Conditions: for MR (Ome), predicted metabolic ratio: based on 144 samples; for MR-range (min-max): omeprazole 20 mg oral, 3 hours; for mr50 (metabolic ratio of the 50th percentile), mr(omeprazole): single oral dose 20 mg omeprazole, blood sample 3 hours after intake
Experimental: The study was performed in accordance with the principles stated in the Declaration of Helsinki as reviewed in Tokyo 1975 and Venice 1983, Hong Kong 1989 and Somerset West 1996. Subjects were preferably not related to each other. Based on questioning, individuals having one of the following were excluded: a medical condition judged to influence liver function or requiring pharmacological treatment; any on-going disease; intake of any drug, except oral contraceptives, during one week prior to the study; breast-feeding or pregnancy. No physical examination was performed. For these experiments, a single oral dose of 20 mg omeprazole (Losec, AstraZeneca) was given in the morning after an overnight fast. The bladder was emptied before drug intake. A single blood sample was collected 3 hours after drug intake.
In the first part of the study, approximately 90 samples (Swedish Caucasians) were selected as set forth in Table 1, on the basis of the following assumptions: if the distribution of an unknown polymorphism will be 25% for a homozygote, a sample size of approximately 40 “UEM” will be able to detect an increase in this specific genotype (homozygote) by 28% (α=5% (two-tailed), power=80%). If it is assumed that the distribution of an unknown polymorphism will be 10% for a homozygote, a sample size of approximately 40 “UEM” will be able to detect an increase in this specific genotype (homozygote) by 21% (α-5% (two-tailed), power=80%). The samples were selected with regard to their phenotyped metabolic ratios (MR) of omeprazole. Available genotype information for all samples was provided.
In the second part of the study, 71 samples with a more normal phenotypic distribution were used. Also, no exclusion of individuals with known defective alleles or duplications was done.
This analysis was performed using software based on maximum likelihood methodology and using the EM algorithm of Excoffier et al. (1995), Mol Biol Evol. 12:921-927. […] From the haplotype information two different kinds of variables were created: one variable was formed as a haplotype combination variable (HTYPE). This variable has the value H1/H2 when the subject has haplotypes 1 and 2, etc. Variables H1, H2, H3 and H4 are haplotype annotations that denote the number of copies of that particular haplotype for the subject, e.g., for a subject with haplotype H1/H2 the variables H1, H2, H3 and H4 will be 1, 1, 0 and 0, respectively. Each of these variables can thus take on the values 0, 1 or 2. Only the four most frequent haplotypes were considered when those variables were formed.

COc1ccc2[nH]c([S+]([O-])Cc3ncc(C)c(OC)c3C)nc2c1 (stereo not drawn) [omeprazole]
MR (Ome), predicted metabolic ratio (HTYPE H1/H1 (352 C, 1060 T), marker for EM): 0.2-0.8 | MR-range (min-max) (HTYPE H1/H1, 63 subjects): 0.17-2.90 | MR (Ome), predicted metabolic ratio (HTYPE H1/H2 (352 C/T, 1060 T), marker for UEM & EM): <0.8 | MR-range (min-max) (HTYPE H1/H2, 31 subjects): 0.12-2.62 | MR (Ome), predicted metabolic ratio (HTYPE H1/H3 (352 C, 1060 C/T), marker for EM &IM): 0.4-7.0 | MR-range (min-max) (HTYPE H1/H3, 27 subjects): 0.03-11.87 | MR (Ome), predicted metabolic ratio (HTYPE H2/H2 (352 T, 1060 T), marker for UEM/EM): <0.4 | MR-range (min-max) (HTYPE H2/H2, 4 subjects): 0.15-0.33 | MR (Ome), predicted metabolic ratio (HTYPE H2/H3 (352 C/T, 1060 C/T), marker for EM & (IM)): 0.4-2.0 | MR-range (min-max) (HTYPE H2/H3, 12 subjects): 0.36-1.75 | MR (Ome), predicted metabolic ratio (HTYPE H3/H3 (352 C, 1060 C), marker for PM): >7.0 | MR-range (min-max) (HTYPE H3/H3, 7 subjects): 1.28-23.75 | mr50 (metabolic ratio of the 50th percentile), mr(omeprazole) (haplotype H1/H1, n = 60): mr50 = 0.485 | mr50 (metabolic ratio of the 50th percentile), mr(omeprazole) (haplotype H1/—, n = 63): mr50 = 0.63 | mr50 (metabolic ratio of the 50th percentile), mr(omeprazole) (haplotype H2/H2, n = 4): mr50 = 0.25 | mr50 (metabolic ratio of the 50th percentile), mr(omeprazole) (haplotype H2/—, n = 44): mr50 = 0.485 | mr50 (metabolic ratio of the 50th percentile), mr(omeprazole) (haplotype H3/H3, n = 7): mr50 = 16.86 | mr50 (metabolic ratio of the 50th percentile), mr(omeprazole) (haplotype H3/—, n = 39): mr50 = 0.88 | mr50 (metabolic ratio of the 50th percentile), mr(omeprazole) (haplotype H4/H4, n = 2): mr50 = 1.5 | mr50 (metabolic ratio of the 50th percentile), mr(omeprazole) (haplotype H4/—, n = 14): mr50 = 0.755 | mr50 (metabolic ratio of the 50th percentile), mr(omeprazole) (haplotype —/— (no copy of H1), n = 30): mr50 = 0.97 | mr50 (metabolic ratio of the 50th percentile), mr(omeprazole) (haplotype —/— (no copy of H2), n = 105): mr50 = 0.64 | mr50 (metabolic ratio of the 50th percentile), mr(omeprazole) (haplotype —/— (no copy of H3), n = 107): mr50 = 0.47 | mr50 (metabolic ratio of the 50th percentile), mr(omeprazole) (haplotype —/— (no copy of H4), n = 137): mr50 = 0.56
